In patent publication US5883074A, “Potentiators of antibacterial agents” (priority 1995, dated 1999):

Legend:
MRSA [1] = experiment: Potentiation screening assay: methicillin MIC reduction in MRSA; assay type: cell-based, Staphylococcus aureus; settings: 0, 5, and 10 μg/ml test compound
Method: After regrowth at 35° C. to an OD600 of 0.2-0.4 (1-2 hrs.), the cells are diluted 1/1000 in MHB. […] The plate is placed in a humidified 35° C. incubator for 5-24 hours, and cell growth or inhibition is read as turbidity (OD600). Two positive and one negative controls for growth are cells grown MHB, cells grown in MHB plus 20 μg/ml methicillin alone (without test compound), and uninoculated MHB respectively.
Compounds which meet the first two criteria for follow-up are evaluated in a standard microdilution assessment of the MIC with methicillin for MRSA. (see Lorian, Antibiotics in Laboratory Medicine, 3rd ed., pp. 72-75 (1991).) In order to be carried further, the MIC of methicillin preferably is reduced in the presence of the potentiator to at most twice the MIC of a susceptible strain for methicillin.
MICs for the compounds were determined in the presence of 0, 5, and 10 μg/ml of each compound. MRSA cells were grown in the presence of 0, 5, and 10 μg/ml test compound and concentrations of methicillin obtained from serial two-fold dilutions starting at 1024 μg/ml to 0.002 μg/ml (This range can be extended or refined as appropriate.) as follows: A fresh inoculum of MRSA cells was grown at 35° C. in Mueller-Hinton Broth (MHB) overnight and then diluted 1/50 in the same medium. After regrowth at 35° C. to an OD600 of 0.2-0.4 (1-2 hrs.), the cells were diluted 1/1000 in MHB. […] The plate was placed in a humidified 35° C. incubator for 24 hours, and cell growth or inhibition was read as turbidity (OD600).

MRSA [2] = experiment: Specificity: intrinsic antibacterial activity without antibacterial agent; assay type: cell-based, Staphylococcus aureus; settings: test compound alone, without methicillin
Method: In order to ascertain that the test compound is not primarily responsible for inhibition of growth, MRSA cells are grown in the presence of 5 μg/ml test compound as follows: A fresh inoculum of MRSA cells is grown at 35° C. in Mueller-Hinton Broth (MHB) overnight and then diluted 1/50 in the same medium. After regrowth at 35° C. to an OD600 of 0.2-0.4 (1-2 hrs.), the cells are diluted 1/1000 in MHB. In a microtiter plate, 50 μl of this diluted culture is combined with 50 μl MHB containing 10 μg/ml test compound to give starting growth conditions of 5×10^5 cfu/ml in MHB, with 5 μg/ml test compound. The plate is placed in a humidified 35° C. incubator for 5-24 hours, and cell growth or inhibition is read as turbidity (OD600). To be carried forward to the next step of the potentiator screening assay, the test compound should have little or no intrinsic anti-staphylococcal activity (growth should be at least 75% of the growth of the positive control without methicillin, corrected for background), or that activity should be explicable without indicating the probability of human toxicity.

## COc1ccc2c(c1)CCCC2=O [6-methoxy-1-tetralone]
MRSA [1]
  effect on the MIC for methicillin: little or no effect on the MIC for methicillin

## CC1(C)CCCC2(C)C1CCC1(C)OC(=O)CC12 (single isomer, unassigned) [(3aR) -(+) -sclareolide]
MRSA [1]
  effect on the MIC for methicillin: little or no effect on the MIC for methicillin

## 10a, 12a dimethyl 1-8-hydroxy-tetradecahydrochrysene
MRSA [1]
  effect on the MIC for methicillin: reduce the MIC for methicillin
MRSA [2]
  intrinsic antimicrobial activity: not exhibiting intrinsic antimicrobial activity

## C[C@@]12CCC[C@H]1[C@@H]1CC[C@H]3C[C@@H](O)CC[C@]3(C)[C@H]1CC2 [5-α-androstan-3β-ol]
MRSA [1]
  effect on the MIC for methicillin: reduce the MIC for methicillin
MRSA [2]
  intrinsic antimicrobial activity: not exhibiting intrinsic antimicrobial activity

## C[C@@]12CCC[C@H]1[C@@H]1CC[C@@H]3C[C@@H](O)CC[C@]3(C)[C@H]1CC2 [5β-androstan-3β-ol]
MRSA [1]
  effect on the MIC for methicillin: reduce the MIC for methicillin
MRSA [2]
  intrinsic antimicrobial activity: not exhibiting intrinsic antimicrobial activity

## C[C@]12CC[C@@H]3c4ccc(O)cc4CC[C@H]3[C@@H]1CC[C@H]2O [α-estradiol]
MRSA [1]
  effect on the MIC for methicillin: little or no effect on the MIC for methicillin

## COc1cc2c(cc1OC)C(=O)CCC2 [6,7-dimethoxy-1-tetralone]
MRSA [1]
  effect on the MIC for methicillin: little or no effect on the MIC for methicillin

## C[C@H]1[C@H](C)CC[C@]2(CO)CC[C@]3(C)C(=CC[C@@H]4[C@@]5(C)CC[C@H](O)C(C)(C)[C@@H]5CC[C@]43C)[C@H]12 [uvaol]
MRSA [1]
  effect on the MIC for methicillin: reduce the MIC for methicillin
MRSA [2]
  intrinsic antimicrobial activity: not exhibiting intrinsic antimicrobial activity

## COc1ccc2c(c1)CCCC2 [6-methoxy-1,2,3,4-tetrahydronaphthalene]
MRSA [1]
  effect on the MIC for methicillin: little or no effect on the MIC for methicillin

## C[C@]12CC[C@@H]3c4ccc(O)cc4CC[C@H]3[C@@H]1CC[C@@H]2O [β-estradiol]
MRSA [1]
  effect on the MIC for methicillin: little or no effect on the MIC for methicillin

## C[C@]12CC[C@H](O)C[C@@H]1CC[C@@H]1[C@@H]2CC[C@]2(C)C(=O)CC[C@@H]12 [epiandrosterone]
MRSA [1]
  effect on the MIC for methicillin: little or no effect on the MIC for methicillin

## 4a, 5-epoxy-3-oxo-14H-4,6a,9,9-4mephenanthro (2,3-D)(1,3)dioxole-4-propionic acid
MRSA [1]
  effect on the MIC for methicillin: little or no effect on the MIC for methicillin

## COc1ccc2c(c1)[C@]13CCCC[C@@H]1[C@H](C2)N(C)CC3 [dextromethorphan]
MRSA [1]
  effect on the MIC for methicillin: little or no effect on the MIC for methicillin

## C=C1CC[C@H](O)C/C1=C/C=C1\CCC[C@]2(C)[C@@H]([C@H](C)/C=C/[C@H](C)C(C)C)CC[C@@H]12 [ergocalciferol]
MRSA [1]
  effect on the MIC for methicillin: little or no effect on the MIC for methicillin

## COc1ccc2c(c1)CC[C@@H]1[C@@H]2CC[C@]2(C)[C@@H](O)CC[C@@H]12 [β-estradiol-3-methyl ether]
MRSA [1]
  effect on the MIC for methicillin: reduce the MIC for methicillin
MRSA [2]
  intrinsic antimicrobial activity: not exhibiting intrinsic antimicrobial activity

## C=C1CC[C@@H]2[C@](C)(CO)[C@H](O)CC[C@@]2(C)[C@@H]1C/C=C1/C(=O)OC[C@H]1O [andrographolide]
MRSA [1]
  effect on the MIC for methicillin: little or no effect on the MIC for methicillin

## COC(=O)C1(C)CCCC2(C)c3cc(OC)ccc3CCC12 (stereo not drawn) [methyl o-methyl-podocarpate]
MRSA [1]
  effect on the MIC for methicillin: little or no effect on the MIC for methicillin

## C[C@@]12CCC[C@H]1[C@@H]1CC[C@@H]3C[C@H](O)CC[C@]3(C)[C@H]1CC2 [5β-androstan-3-α-ol]
MRSA [1]
  effect on the MIC for methicillin: reduce the MIC for methicillin
MRSA [2]
  intrinsic antimicrobial activity: not exhibiting intrinsic antimicrobial activity
